Tests used:
[1] = target: GSK-3 (beta isoform) (Oryctolagus cuniculus, UniProt G1T8E2); assay: Kinase selectivity assay GSK-3; assay type: biochemical, rabbit
Protocol: (§1) Assays to test compound inhibition of other kinases were preformed using methods that measure the amount of phosphorylation of a biotinylated peptide substrate. Biotinylated peptide substrates were selected from the literature as appropriate for the enzyme being evaluated. The general procedure used to assay for kinase activity is as follows: a kinase reaction mix was prepared in 50 mM Tris-HCl pH=8, 10 mM MgCl2, 0.1 mM Na3VO4, 1 mM DTT, 10 μM ATP, 0.25–1 μM biotinylated peptide substrate, 0.2–0.8 μCuries per well ^33P-γ-ATP (2000–3000 Ci/mmol). Assay conditions vary slightly for each protein kinase, for example, insulin receptor kinase requires 10 mM MnCl2 for activity and Calmodulin-dependent protein kinase requires calmodulin and 2 mM CaCl2. The reaction mixture was dispensed into the wells of a streptavidin coated Flashplate and 1 μL test compound in 100% DMSO was added to a 100 μL reaction volume resulting in a final concentration of 1% DMSO in the reaction. Enzyme was diluted in 50 mM Tris-HCl pH=8.0, 0.1% BSA and added to each well. The reaction was incubated for one hour at 30° C. in the presence of a test compound. […] The plate was read on a scintillation counter to determine ^33P-γ-ATP incorporated into the immobilized peptide substrate. […] A maximum and minimum signal for the assay was determined on each plate. […]

[2] = target: T1, Calmodulin Kinase (calmodulin-dependent protein kinase 2) (Rattus norvegicus, UniProt P11275); assay: Kinase selectivity assay Calmodulin Kinase; assay type: biochemical
T1 construct: purchased New England Biolabs 6060; host or cells: insect cells
Protocol: as §1

[3] = system: HCT-116 colon carcinoma; assay: Inhibition of cell proliferation, 14C-thymidine incorporation, HCT-116; assay type: cell-based; conditions: Homo sapiens
Protocol: The ability of a test compound to inhibit the proliferation of cell growth was determined by measuring incorporation of ^14C-labelled thymidine into newly synthesized DNA within the cells. This method was used on cell lines derived from carcinomas originating from several tissues such as HeLa cervical adenocarcinoma (American Type Culture Collection (ATCC), Virginia, Cat. #CCL-2), HCT-116 colon carcinoma (CCL-247), MDA-MB-231 (Xenogen Corp.), PC-3 prostate adenocarcinoma (ATCC CRL-1435) and A375 malignant melanoma (ATCC CRL-1619).
Using this method, the effect of a compound on cell growth of cells with many different phenotypes can be determined. Cells were trypsinized and counted and 3000–8000 cells were added to each well of a 96-well CytoStar tissue culture treated scintillating microplate (Amersham #RPNQ0160) in complete medium in a volume of 100 μl. Cells were incubated for 24 hours in complete medium at 37° C. in an atmosphere containing 5% CO2. 1 μL of test compound in 100% DMSO was then added to the wells of the plate. DMSO only was added to control wells. Cells were incubated for 24 more hours in complete medium at 37° C. in an atmosphere containing 5% CO2. […] The degree of methyl ^14C-thymidine incorporation was quantified on a Packard Top Count.

[4] = target: T2, Casein Kinase 2 (Homo sapiens, UniProt P68400); assay: Kinase selectivity assay Casein Kinase 2; assay type: biochemical
T2 construct: purchased New England Biolabs 6010; host or cells: E. coli
Protocol: as §1

T2 sequence (P68400 whole entry): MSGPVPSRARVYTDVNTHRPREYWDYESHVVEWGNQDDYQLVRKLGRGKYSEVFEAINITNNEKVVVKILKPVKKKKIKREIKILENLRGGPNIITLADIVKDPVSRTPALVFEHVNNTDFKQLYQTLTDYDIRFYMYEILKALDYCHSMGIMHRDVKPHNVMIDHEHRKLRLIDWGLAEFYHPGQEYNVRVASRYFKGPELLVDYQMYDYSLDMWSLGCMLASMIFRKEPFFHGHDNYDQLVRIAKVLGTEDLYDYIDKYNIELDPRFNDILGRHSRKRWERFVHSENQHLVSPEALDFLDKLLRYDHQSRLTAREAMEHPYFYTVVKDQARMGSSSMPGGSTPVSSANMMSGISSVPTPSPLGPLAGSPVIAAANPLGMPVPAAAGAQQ
T2 sequence (P67870 whole entry partner): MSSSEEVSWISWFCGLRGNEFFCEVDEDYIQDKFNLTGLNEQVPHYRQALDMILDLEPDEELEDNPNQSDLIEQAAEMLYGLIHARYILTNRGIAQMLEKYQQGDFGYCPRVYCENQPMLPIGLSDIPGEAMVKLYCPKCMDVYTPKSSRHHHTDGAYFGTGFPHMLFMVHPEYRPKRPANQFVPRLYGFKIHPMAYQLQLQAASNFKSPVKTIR
Chain of GSK-3 (beta isoform) (G1T8E2 1-432): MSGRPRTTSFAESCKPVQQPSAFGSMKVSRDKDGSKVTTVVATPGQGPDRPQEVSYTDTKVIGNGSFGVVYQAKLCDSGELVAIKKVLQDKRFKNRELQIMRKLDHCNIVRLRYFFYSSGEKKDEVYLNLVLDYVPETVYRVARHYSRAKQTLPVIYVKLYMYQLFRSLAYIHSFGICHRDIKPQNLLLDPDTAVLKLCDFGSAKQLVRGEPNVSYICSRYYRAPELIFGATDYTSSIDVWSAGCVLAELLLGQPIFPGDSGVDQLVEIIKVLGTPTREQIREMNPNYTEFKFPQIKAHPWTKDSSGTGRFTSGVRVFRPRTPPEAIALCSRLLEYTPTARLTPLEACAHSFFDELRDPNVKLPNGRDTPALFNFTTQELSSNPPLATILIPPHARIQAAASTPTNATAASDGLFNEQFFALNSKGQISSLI

SMILES	IC50 [1] [nM]	IC50 [2] [nM]	IC50 [3] [nM]	IC50 [4] [nM]
OCCCNc1cncc(-c2ncnc(Nc3cccc(Cl)c3)n2)c1 [Compound 1, 3-((5-(4-((3-chlorophenyl)amino)-1,3,5-triazin-2-yl)-3-pyridinyl)amino)-1-propanol]	5	54200	278	926
OCCCNc1cc(-c2ncnc(Nc3cccc(Cl)c3)n2)ccn1 [Compound 2, 3-((4-(4-((3-chlorophenyl)amino)-1,3,5-triazin-2-yl)-2-pyridinyl)amino)-1-propanol]	17	> 10000	48	> 100000
